Measurements: patent US8901118B2, “Compounds and methods for kinase modulation, and indications therefor” (Plexxikon Inc., priority 2010, dated 2014)

Columns and labels:
c-Kit kinase = c-Kit kinase (Homo sapiens, UniProt P10721); assay: c-Kit kinase biochemical activity assay (AlphaScreen, biotin-(E4Y)10 phosphorylation); conditions: 100 μM ATP; read-out: Biochemical Inhibition IC50 Kit
Summary of the method: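 AlphaScreen read-out (streptavidin donor, anti-phosphotyrosine PY20 acceptor beads, EDTA stop) of c-Kit activity. Reaction: 0.75 ng kinase, 100 µM ATP, 30 nM biotin-(E4Y)10, 25 mM HEPES pH 7.5, 2 mM MgCl2, 2 mM MnCl2, 5% DMSO, 1 h room temperature. IC50 derived over an 8-point, two-fold dilution series.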

Flt-3 kinase = target: T1, Flt-3 kinase (Homo sapiens, UniProt P36888); assay: Flt-3 kinase biochemical activity assay (AlphaScreen); conditions: 100 μM ATP; read-out: Biochemical Inhibition IC50 Flt3
T1 sequence (P36888 27-993): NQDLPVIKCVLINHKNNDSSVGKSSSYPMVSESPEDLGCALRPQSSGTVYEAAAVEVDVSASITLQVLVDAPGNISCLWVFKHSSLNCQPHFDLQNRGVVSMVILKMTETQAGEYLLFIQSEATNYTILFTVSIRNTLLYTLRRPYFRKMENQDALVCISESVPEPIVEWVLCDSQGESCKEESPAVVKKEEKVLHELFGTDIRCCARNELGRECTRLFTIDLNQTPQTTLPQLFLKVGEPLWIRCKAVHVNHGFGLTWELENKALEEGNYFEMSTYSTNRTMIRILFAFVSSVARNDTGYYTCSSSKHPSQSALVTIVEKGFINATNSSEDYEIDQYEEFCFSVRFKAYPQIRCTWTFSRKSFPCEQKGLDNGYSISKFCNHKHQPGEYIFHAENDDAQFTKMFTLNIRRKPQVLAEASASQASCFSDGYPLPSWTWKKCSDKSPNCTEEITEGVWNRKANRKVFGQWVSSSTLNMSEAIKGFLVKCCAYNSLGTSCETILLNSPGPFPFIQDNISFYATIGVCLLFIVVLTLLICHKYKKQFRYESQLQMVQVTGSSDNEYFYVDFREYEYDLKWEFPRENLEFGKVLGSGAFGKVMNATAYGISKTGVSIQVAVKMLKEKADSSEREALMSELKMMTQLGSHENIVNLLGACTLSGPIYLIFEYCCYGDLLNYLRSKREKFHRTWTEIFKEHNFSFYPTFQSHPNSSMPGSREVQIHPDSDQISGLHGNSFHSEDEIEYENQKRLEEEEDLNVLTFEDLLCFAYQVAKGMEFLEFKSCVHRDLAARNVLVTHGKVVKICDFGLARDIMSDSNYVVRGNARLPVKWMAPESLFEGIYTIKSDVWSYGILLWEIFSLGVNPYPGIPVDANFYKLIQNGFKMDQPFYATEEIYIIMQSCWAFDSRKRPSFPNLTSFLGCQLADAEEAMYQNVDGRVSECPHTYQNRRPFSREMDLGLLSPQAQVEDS
Summary of the method: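 Recombinant kinase (1 ng/well) phosphorylated 30 nM biotin-(E4Y)10 with 100 μM ATP in Hepes pH 7.5 buffer with Mg/Mn, 5% DMSO, for 1 h at room temperature. EDTA-containing AlphaScreen streptavidin donor/PY20 acceptor beads detected phosphotyrosine; IC50 was derived from signal versus concentration.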

c-Kit kinase, sequence (P10721 26-976): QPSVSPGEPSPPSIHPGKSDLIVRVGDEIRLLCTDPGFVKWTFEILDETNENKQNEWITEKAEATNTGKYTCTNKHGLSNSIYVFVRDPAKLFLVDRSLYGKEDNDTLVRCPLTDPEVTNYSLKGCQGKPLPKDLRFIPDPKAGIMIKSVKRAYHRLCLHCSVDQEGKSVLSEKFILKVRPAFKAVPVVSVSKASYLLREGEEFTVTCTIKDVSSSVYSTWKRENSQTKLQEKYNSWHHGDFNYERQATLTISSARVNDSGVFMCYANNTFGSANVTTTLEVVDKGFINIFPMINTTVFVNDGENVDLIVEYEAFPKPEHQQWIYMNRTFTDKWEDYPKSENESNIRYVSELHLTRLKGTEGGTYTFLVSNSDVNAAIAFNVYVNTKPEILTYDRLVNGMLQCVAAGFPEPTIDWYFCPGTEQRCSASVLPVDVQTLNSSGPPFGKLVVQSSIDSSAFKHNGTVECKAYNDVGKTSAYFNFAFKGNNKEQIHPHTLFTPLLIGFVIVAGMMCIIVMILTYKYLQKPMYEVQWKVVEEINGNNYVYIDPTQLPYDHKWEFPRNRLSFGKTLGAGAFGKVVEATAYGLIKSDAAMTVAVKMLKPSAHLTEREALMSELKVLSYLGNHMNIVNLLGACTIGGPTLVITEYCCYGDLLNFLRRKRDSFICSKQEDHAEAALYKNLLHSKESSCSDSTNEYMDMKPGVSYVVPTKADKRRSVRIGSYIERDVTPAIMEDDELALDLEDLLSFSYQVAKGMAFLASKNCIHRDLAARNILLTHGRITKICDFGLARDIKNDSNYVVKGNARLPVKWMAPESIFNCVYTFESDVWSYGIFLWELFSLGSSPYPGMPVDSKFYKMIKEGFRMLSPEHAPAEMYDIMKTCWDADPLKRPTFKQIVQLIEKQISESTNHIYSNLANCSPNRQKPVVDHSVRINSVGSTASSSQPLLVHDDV

CCOc1ncnc2[nH]cc(Cc3ccc(Nc4ccc(OC)nc4)nc3F)c12 [Compound P-4018, [5-(4-Ethoxy-7H-pyrrolo[2,3-d]pyrimidin-5-ylmethyl)-6-fluoro-pyridin-2-yl]-(6-methoxy-pyridin-3-yl)-amine]
IC50 (c-Kit kinase): < 100 nM
IC50 (Flt-3 kinase): < 100 nM

COCCOc1ncnc2[nH]cc(Cc3ccc(Nc4ccc(OC)nc4)nc3F)c12 [Compound P-4019, {6-Fluoro-5-[4-(2-methoxy-ethoxy)-7H-pyrrolo[2,3-d]pyrimidin-5-ylmethyl]-pyridin-2-yl}-(6-methoxy-pyridin-3-yl)-amine]
IC50 (c-Kit kinase): < 1000 nM
IC50 (Flt-3 kinase): < 100 nM

CCOc1ncnc2[nH]cc(Cc3ccc(Nc4ccc(Br)nc4)nc3F)c12 [Compound P-4020, (6-Bromo-pyridin-3-yl)-[5-(4-ethoxy-7H-pyrrolo[2,3-d]pyrimidin-5-ylmethyl)-6-fluoro-pyridin-2-yl]-amine]
IC50 (c-Kit kinase): < 100 nM
IC50 (Flt-3 kinase): < 100 nM

CCOc1ncnc2[nH]cc(Cc3ccc(Nc4cccnc4)nc3F)c12 [Compound P-4021, [5-(4-Ethoxy-7H-pyrrolo[2,3-d]pyrimidin-5-ylmethyl)-6-fluoro-pyridin-2-yl]-pyridin-3-yl-amine]
IC50 (c-Kit kinase): < 1000 nM
IC50 (Flt-3 kinase): > 1000 nM

COc1ccc(Nc2ccc(C(=O)c3c[nH]c4ncnc(C5CC5)c34)c(F)n2)cn1 [Compound P-4022, (4-cyclopropyl-7H-pyrrolo[2,3-d]pyrimidin-5-yl)-[2-fluoro-6-(6-methoxy-pyridin-3-ylamino)-pyridin-3-yl]-methanone]
IC50 (c-Kit kinase): < 1000 nM
IC50 (Flt-3 kinase): < 100 nM

COc1ccc(Nc2ccc(Cc3c[nH]c4ncnc(C5CC5)c34)c(F)n2)cn1 [Compound P-4023, [5-(4-cyclopropyl-7H-pyrrolo[2,3-d]pyrimidin-5-ylmethyl)-6-fluoro-pyridin-2-yl]-(6-methoxy-pyridin-3-yl)-amine]
IC50 (c-Kit kinase): < 1000 nM
IC50 (Flt-3 kinase): < 1000 nM

CCOc1ccc(Nc2ccc(C(=O)c3c[nH]c4ncnc(OC)c34)c(F)n2)cn1 [Compound P-4024, [6-(6-Ethoxy-pyridin-3-ylamino)-2-fluoro-pyridin-3-yl]-(4-methoxy-7H-pyrrolo[2,3-d]pyrimidin-5-yl)-methanone]
IC50 (c-Kit kinase): < 1000 nM
IC50 (Flt-3 kinase): < 100 nM

CCOc1ncnc2[nH]cc(C(=O)c3ccc(Nc4ccc(OC)nc4)nc3F)c12 [Compound P-4025, (4-Ethoxy-7H-pyrrolo[2,3-d]pyrimidin-5-yl)-[2-fluoro-6-(6-methoxy-pyridin-3-ylamino)-pyridin-3-yl]-methanone]
IC50 (c-Kit kinase): > 1000 nM
IC50 (Flt-3 kinase): < 1000 nM

CCOc1ccc(Nc2ccc(Cc3c[nH]c4ncnc(C5CC5)c34)c(F)n2)cn1 [Compound P-4026, [5-(4-Cyclopropyl-7H-pyrrolo[2,3-d]pyrimidin-5-ylmethyl)-6-fluoro-pyridin-2-yl]-(6-ethoxy-pyridin-3-yl)-amine]
IC50 (c-Kit kinase): < 1000 nM
IC50 (Flt-3 kinase): < 100 nM

CCOc1ccc(Nc2ccc(C(=O)c3c[nH]c4ncnc(C5CC5)c34)c(F)n2)cn1 [Compound P-4027, (4-Cyclopropyl-7H-pyrrolo[2,3-d]pyrimidin-5-yl)-[6-(6-ethoxy-pyridin-3-ylamino)-2-fluoro-pyridin-3-yl]-methanone]
IC50 (c-Kit kinase): < 100 nM
IC50 (Flt-3 kinase): < 10 nM

CCc1ccc(Nc2ccc(Cc3c[nH]c4ncnc(C5CC5)c34)c(F)n2)cn1 [Compound P-4028, [5-(4-Cyclopropyl-7H-pyrrolo[2,3-d]pyrimidin-5-ylmethyl)-6-fluoro-pyridin-2-yl]-(6-ethyl-pyridin-3-yl)-amine]
IC50 (c-Kit kinase): < 100 nM
IC50 (Flt-3 kinase): < 100 nM

CCc1ccc(Nc2ccc(C(=O)c3c[nH]c4ncnc(C5CC5)c34)c(F)n2)cn1 [Compound P-4029, (4-Cyclopropyl-7H-pyrrolo[2,3-d]pyrimidin-5-yl)-[6-(6-ethyl-pyridin-3-ylamino)-2-fluoro-pyridin-3-yl]-methanone]
IC50 (c-Kit kinase): < 100 nM
IC50 (Flt-3 kinase): < 10 nM

Cc1ccc(Nc2ccc(Cc3c[nH]c4ncnc(C5CC5)c34)c(F)n2)cn1 [Compound P-4030, [5-(4-Cyclopropyl-7H-pyrrolo[2,3-d]pyrimidin-5-ylmethyl)-6-fluoro-pyridin-2-yl]-(6-methyl-pyridin-3-yl)-amine]
IC50 (c-Kit kinase): < 1000 nM
IC50 (Flt-3 kinase): < 1000 nM

Cc1ccc(Nc2ccc(C(=O)c3c[nH]c4ncnc(C5CC5)c34)c(F)n2)cn1 [Compound P-4031, (4-Cyclopropyl-7H-pyrrolo[2,3-d]pyrimidin-5-yl)-[2-fluoro-6-(6-methyl-pyridin-3-ylamino)-pyridin-3-yl]-methanone]
IC50 (c-Kit kinase): < 100 nM
IC50 (Flt-3 kinase): < 100 nM

CCOc1ccc(Nc2ccc(C(=O)c3c[nH]c4ncnc(C)c34)c(F)n2)cn1 [Compound P-4032, [6-(6-Ethoxy-pyridin-3-ylamino)-2-fluoro-pyridin-3-yl]-(4-methyl-7H-pyrrolo[2,3-d]pyrimidin-5-yl)-methanone]
IC50 (c-Kit kinase): < 100 nM
IC50 (Flt-3 kinase): < 100 nM

CCn1cc(Nc2ccc(Cc3c[nH]c4ncnc(C5CC5)c34)c(F)n2)cn1 [Compound P-4036, [5-(4-Cyclopropyl-7H-pyrrolo[2,3-d]pyrimidin-5-ylmethyl)-6-fluoro-pyridin-2-yl]-(1-ethyl-1H-pyrazol-4-yl)-amine]
IC50 (c-Kit kinase): < 1000 nM
IC50 (Flt-3 kinase): > 1000 nM

CCn1cc(Nc2ccc(C(=O)c3c[nH]c4ncnc(C5CC5)c34)c(F)n2)cn1 [Compound P-4037, (4-Cyclopropyl-7H-pyrrolo[2,3-d]pyrimidin-5-yl)-[6-(1-ethyl-1H-pyrazol-4-ylamino)-2-fluoro-pyridin-3-yl]-methanone]
IC50 (c-Kit kinase): < 1000 nM
IC50 (Flt-3 kinase): < 1000 nM
